Data as given in publication PMC9596378, “Discovery and molecular basis of subtype-selective cyclophilin inhibitors” (Nature Chemical Biology, 2022).
Several values for one entry are separate records, joined by “and”; a condition that tells them apart may be missing. Equal entries are not always repeated. Where two headings read alike, the source gives them in different places.

Tests used:
Assay in all cases: Chymotrypsin coupled prolyl-isomerase assay
Format in all cases: biochemical
CypA = target: T1, CypA (Homo sapiens, UniProt P62937); details: for CypA prolyl-isomerase assay raw dose-response value: Fig. 3b source data, replicates
T1 construct: PPIA (UniProtKB Entry P62937: residues 1–165); made in house; host or cells: E. coli BL21(DE3)
T1 sequence (P62937 whole entry, the tested form may be a part): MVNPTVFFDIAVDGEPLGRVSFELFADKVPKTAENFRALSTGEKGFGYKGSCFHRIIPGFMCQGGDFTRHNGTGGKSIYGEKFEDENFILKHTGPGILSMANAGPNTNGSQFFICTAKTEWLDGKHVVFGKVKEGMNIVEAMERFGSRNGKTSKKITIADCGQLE
Outline: (§1)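 5 nM Cyp, HEPES pH 7.3/NaCl/Triton buffer, 2–3 °C; cpd 5 min, chymotrypsin 25 µM 5 min, then Suc-AAPF-AMC 5 µM in LiCl/TFE. Kinetic fluorescence 330 s. Per-well rate constants, normalized, IC50 from nonlinear fit.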

CypC = target: T2, CypC (Homo sapiens, UniProt P45877); details: for CypC prolyl-isomerase assay raw dose-response value: Fig. 3b source data, replicates
T2 construct: PPIC (UniProtKB Entry P45877: residues 24–212); host or cells: E. coli BL21(DE3)
T2 sequence (P45877 24-212): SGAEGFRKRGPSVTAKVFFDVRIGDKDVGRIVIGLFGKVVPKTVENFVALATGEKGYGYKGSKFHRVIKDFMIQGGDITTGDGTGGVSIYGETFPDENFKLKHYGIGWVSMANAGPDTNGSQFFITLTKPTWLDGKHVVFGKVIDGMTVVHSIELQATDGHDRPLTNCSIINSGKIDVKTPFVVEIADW
Outline: as §1

CypE = target: T3, CypE (Homo sapiens, UniProt Q9UNP9); details: for CypE prolyl-isomerase assay raw dose-response value: Fig. 3b source data, replicates
T3 construct: PPIE (UniProtKB Entry Q9UNP9: residues 131–301); host or cells: E. coli BL21(DE3)
T3 sequence (Q9UNP9 131-301): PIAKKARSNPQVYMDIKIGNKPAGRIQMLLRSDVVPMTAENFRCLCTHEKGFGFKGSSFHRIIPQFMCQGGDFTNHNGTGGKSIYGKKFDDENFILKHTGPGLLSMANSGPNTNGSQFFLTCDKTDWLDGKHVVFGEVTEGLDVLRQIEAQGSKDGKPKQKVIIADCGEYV
Outline: as §1

CypG = target: T4, CypG (Homo sapiens, UniProt Q13427); details: Fig. 3b source data, replicates
T4 construct: PPIG (UniProtKB Entry Q13427: residues 1–179); His6 with thrombin site (pET28a LIC leader) (N); host or cells: E. coli BL21(DE3)
T4 sequence (Q13427 1-179): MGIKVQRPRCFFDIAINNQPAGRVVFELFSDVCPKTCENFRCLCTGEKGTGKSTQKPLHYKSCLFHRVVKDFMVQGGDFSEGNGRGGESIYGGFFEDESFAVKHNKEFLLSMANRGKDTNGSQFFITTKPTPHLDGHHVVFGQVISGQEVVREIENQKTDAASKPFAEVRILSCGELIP
Outline: as §1

## NCCOCCNC(=O)[C@@H]1CCNC(=O)/C=C/C(=O)N2CCC[C@](Cc3ccccc3)(C2)C(=O)N[C@@H](Cc2ccc(-c3ccc(CCC(=O)O)cc3)cc2)C(=O)NCc2ccccc2CC(=O)N1 [Compound B23]
CypA; CypA column within the mutant section (comparator for CypA E81S/K82R), read-out: Mutant Cyclophilin Prolyl Isomerase Inhibition IC50 Values, CypA
  IC50: 80 nM
CypA; Dose 0.0201875 µM
  CypA prolyl-isomerase assay raw dose-response value: 0.09097 and 0.1013 and 0.1158
CypA; Dose 0.0605624 µM
  CypA prolyl-isomerase assay raw dose-response value: 0.07524 and 0.06823 and 0.07786
CypA; Dose 0.181687 µM
  CypA prolyl-isomerase assay raw dose-response value: 0.04845 and 0.04593 and 0.054
CypA; Dose 0.545062 µM
  CypA prolyl-isomerase assay raw dose-response value: 0.03092 and 0.02915 and 0.02773
CypA; Dose 1.63519 µM
  CypA prolyl-isomerase assay raw dose-response value: 0.0188 and 0.01847 and 0.01826
CypA; Dose 4.90556 µM
  CypA prolyl-isomerase assay raw dose-response value: 0.01632 and 0.01475 and 0.01432
CypA; Dose 14.7167 µM
  CypA prolyl-isomerase assay raw dose-response value: 0.01473 and 0.01273 and 0.01279
CypA; Dose 44.15 µM
  CypA prolyl-isomerase assay raw dose-response value: 0.01511 and 0.01244 and 0.01258
CypA; prolyl-isomerase inhibition, 5 nM cyclophilin, read-out: IC50 CypA
  IC50: 80 ± 10 nM
CypA; prolyl-isomerase inhibition, read-out: IC50 CypA
  IC50: 80 nM
CypA; wild-type CypA, read-out: Wild-Type Cyclophilin Prolyl Isomerase Inhibition IC50 Values, CypA
  IC50: 80 nM
CypC; Dose 0.0201875 µM
  CypC prolyl-isomerase assay raw dose-response value: 0.0364 and 0.03611 and 0.04566
CypC; Dose 0.0605624 µM
  CypC prolyl-isomerase assay raw dose-response value: 0.03688 and 0.04021 and 0.04113
CypC; Dose 0.181687 µM
  CypC prolyl-isomerase assay raw dose-response value: 0.04275 and 0.03781 and 0.03638
CypC; Dose 0.545062 µM
  CypC prolyl-isomerase assay raw dose-response value: 0.03775 and 0.04123 and 0.03915
CypC; Dose 1.63519 µM
  CypC prolyl-isomerase assay raw dose-response value: 0.0345 and 0.03482 and 0.03957
CypC; Dose 4.90556 µM
  CypC prolyl-isomerase assay raw dose-response value: 0.0293 and 0.02714 and 0.0334
CypC; Dose 14.7167 µM
  CypC prolyl-isomerase assay raw dose-response value: 0.02525 and 0.02065 and 0.02297
CypC; Dose 44.15 µM
  CypC prolyl-isomerase assay raw dose-response value: 0.02045 and 0.01408 and 0.0166
CypC; wild-type CypC, read-out: Wild-Type Cyclophilin Prolyl Isomerase Inhibition IC50 Values, CypC
  IC50: 5 µM
CypE; Dose 0.00457247 µM
  CypE prolyl-isomerase assay raw dose-response value: 0.1029 and 0.09388 and 0.1478
CypE; Dose 0.0137174 µM
  CypE prolyl-isomerase assay raw dose-response value: 0.07275 and 0.07554 and 0.1142
CypE; Dose 0.0411523 µM
  CypE prolyl-isomerase assay raw dose-response value: 0.04814 and 0.04078 and 0.05584
CypE; Dose 0.123457 µM
  CypE prolyl-isomerase assay raw dose-response value: 0.02663 and 0.02961 and 0.04183
CypE; Dose 0.37037 µM
  CypE prolyl-isomerase assay raw dose-response value: 0.01687 and 0.01785 and 0.01578
CypE; Dose 1.11111 µM
  CypE prolyl-isomerase assay raw dose-response value: 0.01294 and 0.01514 and 0.0179
CypE; Dose 3.33333 µM
  CypE prolyl-isomerase assay raw dose-response value: 0.01306 and 0.01252 and 0.01422
CypE; Dose 10 µM
  CypE prolyl-isomerase assay raw dose-response value: 0.01752 and 0.01195 and 0.01258
CypE; wild-type CypE, read-out: Wild-Type Cyclophilin Prolyl Isomerase Inhibition IC50 Values, CypE
  IC50: 19 nM
CypG; Dose 0.0201875 µM
  CypG prolyl-isomerase assay raw dose-response value: 0.05557 and 0.07057 and 0.08284
CypG; Dose 0.0605624 µM
  CypG prolyl-isomerase assay raw dose-response value: 0.06342 and 0.06664 and 0.0785
CypG; Dose 0.181687 µM
  CypG prolyl-isomerase assay raw dose-response value: 0.06147 and 0.06545 and 0.06938
CypG; Dose 0.545062 µM
  CypG prolyl-isomerase assay raw dose-response value: 0.06208 and 0.06061 and 0.06273
CypG; Dose 1.63519 µM
  CypG prolyl-isomerase assay raw dose-response value: 0.04663 and 0.04276 and 0.05928
CypG; Dose 4.90556 µM
  CypG prolyl-isomerase assay raw dose-response value: 0.04439 and 0.04343 and 0.05116
CypG; Dose 14.7167 µM
  CypG prolyl-isomerase assay raw dose-response value: 0.03836 and 0.03799 and 0.04109
CypG; Dose 44.15 µM
  CypG prolyl-isomerase assay raw dose-response value: 0.02708 and 0.02241 and 0.02205
